One compound from US20240252508A1, “Novel glucose uptake inhibitors for use in the treatment of cancer” (NOVELYEAST BV, priority 2021, published 2024) can be followed below.

“Also recorded” adds a separate entry of the source.

The target in one data set is T1, yeast Hxt7 (Saccharomyces cerevisiae, UniProt P39004).
T1 construct: HA (C); expressed in transfected cells; host or cells: S. cerevisiae RE700A (hxt0 gal2Δ) in A5; EBY.VW4000 (hxt0 erg4Δ) in A7; plasmid 'pHXT7'
Description: Glucose uptake by Hxt7 expressed in hxt^0 erg4Δ (EBY.VW4000) yeast. It counts as cell-based, S. cerevisiae. An excerpt:
To assess whether WBC-A could inhibit glucose transport activity of the GLUT carriers, we expressed human GLUT1^V69M and GLUT4^V85M in a hxt^0 gal2Δ (RE700A) and hxt^0 erg4Δ (EBY.VW4000) strain, respectively. These strains are both deficient in glucose uptake due to absence of all active glucose transporters. For functional GLUT expression in yeast, specific mutations had to be introduced in both sequences, whereas for GLUT4, an additional ERG4 gene deletion was required^64,65,66.
Zero-trans uptake of radioactively labeled [U-^14C]glucose, [U-^14C]fructose or [U-^14C]galactose by S. cerevisiae cells was determined in accordance with previous studies^44,66. Cells were grown on different carbon sources depending on the experiment. For measuring glucose uptake activity in the tps1Δ and tps1Δ hxtA strains (FIG. 1b,c), cells were grown on YP medium containing 3% glycerol (measurement of 10s). Typically, for compound characterization and kinetic studies in wild type and tps1Δ strains, cells were (pre)grown on Complete Synthetic medium supplemented with 2% galactose (measurement of 10s). […] The loaded filter was transferred to a scintillation vial containing 3 mL liquid scintillation cocktail (Ultima-Flo M, Perkin Elmer) and counted using the Hidex 300 SL. […]

In data set [1] the test system is A549 lung adenocarcinoma cells. Description: 2-deoxyglucose uptake in A549 cells. The data set is classed as cell-based, human. As to the method: Zero-trans glucose uptake in A549 cells was approximated by measuring the uptake of [1,2-^3H]2-deoxyglucose. For this purpose, A549 cells were pregrown in RPMI medium containing 10 mM glucose in a 24-well plate to a cell density of around 100,000 cells/well. Prior to adding radioactive label, cells were gently washed twice in Krebs-Ringer-HEPES buffer (50 mM HEPES pH 7.4, 137 mM NaCl, 4.7 mM KCl, […], 1.3 mM MgSO4 and 0.1% w/v BSA) at 30° C. to remove any residual sugar. RPMI medium without sugar containing the compound intended for treatment, was added to the cells for 15 min at 37° C. to allow adequate interaction of the cells with the compound.
The uptake measurement was initiated by adding an equal volume of medium containing radiolabeled 2DG. After 3-4 min, medium was aspirated and cells were gently washed three times with ice-cold Krebs-Ringer-HEPES buffer. Cells were lysed by adding 200 μL of ice-cold 0.1 M NaOH solution and incubating the plate for 10 min at 37° C. Cell lysates were transferred to scintillation vials for subsequent scintillation counting. For blank measurements, cells were incubated with 50 μM Cytochalasin B prior to the uptake measurement.

Data set [2] deals with KMS-12-PE multiple myeloma cells. Description: Steady-state glucose consumption and lactate production in KMS-12-PE cells. It counts as cell-based, human. The note with it: 25 μM, 1 mM glucose, 8 h. As to the method: The influence of WBC compounds on the steady-state glucose consumption rate was studied in the A549 adenocarcinoma and KMS-12-PE multiple myeloma cell lines. As such, different parameters needed to be optimized depending on whether cells were adherent or in suspension. As such, A549 cells were incubated at 125,000 cells/well in a 24-well plate in 300 μL RPMI medium for 8 h. For the KMS-12-PE cell line, 100,000 cells/well were incubated in 100 μL RPMI medium in a 96-well plate for 8 h. Medium was collected, spun down and HPLC-analyzed for measuring glucose and lactate levels. Metabolite levels were corrected for cell number, which always varied little over the span of 8 h. For every condition, at least 4 technical repeats were included.

Data set [3] can be described thus: Warbicin toxicity and tolerability in mice. The data set is classed as in vivo, NMRI-nu mice. The protocol: Warbicin in vivo toxicity and tolerability was examined by subjecting NMRI-nu mice to daily intraperitoneal injection of either WBC-A, WBC-15C, WBC-4C or WBC-11C. Compounds were dosed at either 5 mg/kg, 10 mg/kg or 20 mg/kg over a period of 20 days. Three mice were used per condition. To evaluate toxicity, change in body weight was registered daily. As a humane endpoint, mice that lost more than 20% of their original body weight were prematurely sacrificed. An optimal dissolve strategy was developed to administer WBC compounds by intraperitoneal injection. Due to their considerable hydrophobicity, compounds were dissolved in a sterilized 1×PBS, 5% DMSO and 5% Tween-80 solution. For WBC-A, -15C and -4C, this gives an initial clear solution that gradually changes over time into a homogenous suspension which can still be administered in a reproducible way. For WBC-11C it immediately results in a homogenous suspension.

T1 sequence (P39004 whole entry): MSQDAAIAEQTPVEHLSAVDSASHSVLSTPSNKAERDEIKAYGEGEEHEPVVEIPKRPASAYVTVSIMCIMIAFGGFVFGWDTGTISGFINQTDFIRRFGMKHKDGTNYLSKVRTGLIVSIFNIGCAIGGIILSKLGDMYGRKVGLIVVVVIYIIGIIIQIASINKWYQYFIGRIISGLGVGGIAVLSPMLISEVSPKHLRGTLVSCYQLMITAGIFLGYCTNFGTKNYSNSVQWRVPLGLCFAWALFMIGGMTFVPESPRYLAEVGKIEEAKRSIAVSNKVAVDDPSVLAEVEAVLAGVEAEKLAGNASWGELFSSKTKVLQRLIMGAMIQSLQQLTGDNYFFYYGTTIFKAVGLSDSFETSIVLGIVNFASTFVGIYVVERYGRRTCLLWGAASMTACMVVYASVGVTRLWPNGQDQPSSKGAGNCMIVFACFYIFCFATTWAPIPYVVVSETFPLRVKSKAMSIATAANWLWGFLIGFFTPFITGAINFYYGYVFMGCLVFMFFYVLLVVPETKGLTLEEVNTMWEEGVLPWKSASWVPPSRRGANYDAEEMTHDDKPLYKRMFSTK

A word on the IC50: it is the concentration needed to halve the response being measured. Lower therefore signals greater potency in that assay. By Ki is commonly meant the equilibrium dissociation constant of an inhibitor or competing ligand from its target. Compound `Cc1nc(Sc2nnc3n2CCCCC3)c2c(-c3cccs3)csc2n1` [WBC-A] had an IC50 at yeast Hxt7 of 12.9 µM. Also, in data set [1] (Dixon plot analysis, read-out: Ki (=K′i), 2-deoxyglucose uptake in A549 cells), the Ki came out at 52.8 µM. Further, the “Type of inhibition of 2-deoxyglucose uptake in A549 cells” value in data set [1] (Lineweaver-Burk plot analysis) is “noncompetitive”. Besides, the “Glucose consumption and lactate production in KMS-12-PE cells” value in data set [2] was “did not cause inhibition”. Further, in data set [3] (daily i.p. 5, 10, 20 mg/kg, 20 days), the “Other abnormalities at autopsy” value is reported as “No other abnormalities”. Moreover, the “Loss in body weight over 20 days” value in data set [3] (daily i.p. 5, 10 and 20 mg/kg, nude mice) was “no significant loss in body weight; also recorded: No significant difference”. For the same compound, the “AST/ALT ratio vs vehicle” value in data set [3] (sera after 20 days, 5, 10, 20 mg/kg i.p.) is “No significant difference”. Also, the “Blood glucose level vs vehicle” value in data set [3] (sera post mortem after 20 days, 5, 10, 20 mg/kg i.p.) is on record as “No significant difference”.
